Earlier results, collected in patent US6376005B2, “Antimicrobial composition for food and beverage products” (The Procter & Gamble Company, priority 1997, dated 2002).

SMILES	effectiveness against yeasts such as Zygosaccharomyces bailii (Zygosaccharomyces bailii)	effectiveness against bacteria (bacteria)
C[C@@H]1C/C=C/C=C/C=C/C=C/[C@H](O[C@@H]2O[C@H](C)[C@@H](O)[C@H](N)[C@@H]2O)C[C@@H]2O[C@](O)(C[C@@H](O)C[C@H]3O[C@@H]3/C=C/C(=O)O1)C[C@H](O)[C@H]2C(=O)O [natamycin]	particularly effective	not effective
C/C=C/C=C/C(=O)[O-].[K+] [potassium sorbate]	not effective	
